Tested on: STZ-induced type 2 diabetic model rats
Assay: Drug potency on STZ-induced type 2 diabetic model rats (fasting blood glucose)
Assay type: in vivo
Protocol: The extract from Example 13 was trialed for its drug potency on STZ-induced type 2 diabetic model rats in Center for Drug Safety Evaluation, Shanghai University of Traditional Chinese Medicine.
FYGL was orally administered for various groups as: type 2 diabetes control group with saline 20 mL/kg; type 2 diabetes group with low dose of FYGL 50 mg/kg; type 2 diabetes group with high dose of FYGL 150 mg/kg; metformin group with metformin 200 mg/kg; rosiglitazone group with rosiglitazone 3 mg/kg. Numbers of rats in each group are 10.
The symbol # indicates significant difference of the fasting blood glucose level with p<0.05 and ## indicates very significant difference with p<0.01, referred to that of type 2 diabetes control group.

Structure (SMILES) | fasting blood glucose (10 days, metformin 200 mg/kg) | fasting blood glucose (20 days, metformin 200 mg/kg) | fasting blood glucose (30 days, metformin 200 mg/kg) | fasting blood glucose (10 days, rosiglitazone 3 mg/kg) | fasting blood glucose (20 days, rosiglitazone 3 mg/kg) | fasting blood glucose (30 days, rosiglitazone 3 mg/kg)
CN(C)C(=N)N=C(N)N [Metformin, metformin] | 14 ± 4(#) mM | 18 ± 5(#) mM | 13 ± 2 (##) mM |  |  | 
CN(CCOc1ccc(CC2SC(=O)NC2=O)cc1)c1ccccn1 (stereo not drawn) [rosiglitazone] |  |  |  | 14 ± 5(#) mM | 14 ± 4(#) mM | 12 ± 3 (##) mM

— patent US20130136766A1, “EFFECTIVE FRACTION FROM THE FRUITING BODIES OF GANODERMA LUCIDUM, EXTRACTION METHOD, USE AND PREPARATION THEREOF” (Shanghai University of Traditional Chinese Medicine, priority 2010, published 2013)
